Reference: patent EP0044527A1, “Substituted derivatives of benzyl triesters of cyclic adenosin-3',5'-phosphate, method for their preparation and pharmaceutical compositions containing them” (priority 1980, dated 1982)
Like-named read-outs stand apart in the source and are kept apart here.

Tests used:
[1] = Partition coefficient octanol/buffer pH 7.4 (lg P); type: physicochemical; details: Octanol/Puffer
Source text: Weitere physikalische Daten finden sich in der folgenden Tabelle I, die auch zusätzliche beispielhaft hergestellte erfindungsgemäße Verbindungen und deren physikalische Daten enthält. Dabei bedeutet P den Verteilungskoeffizienten Octanol/Puffer, pH 7,4: P = [formula]

[2] = test system: Papillarmuskeln aus dem rechten Ventrikel des Meerschweinchenherzens; test: Positive inotropic effect on isolated papillary muscle, isometric force, with or without phosphodiesterase inhibitor; type: cell-based, Meerschweinchen; details: for minimal effective concentration: read-out: Schwellenkonz.
Protocol: Zur Bestimmung positiv inotroper Wirkungen wurden Papillarmuskeln aus dem rechten Ventrikel des Meerschweinchenherzens verwendet. Die adrenergen Nervenendigungen waren frei von Noradrenalin (Katecholamin-Entspeicherung durch intraperitoneale Injektion von 5 mg/kg Reserpin 24 Stunden vor Präparation der Tiere). Die Aufhängung der Muskeln erfolgte an einem induktiven Kraftaufnehmer in einer mit Sauerstoff gesättigten physiologischen Nährlösung (Volumen 50 ml). Die Kraftregistrierung erfolgte isometrisch, Kontraktionskurven wurden mittels eines Tintenschreibers aufgezeichnet und dann analysiert. Vor Zugabe der Testsubstanz wurden die Muskeln bei konstanter Reizung (Frequenz 0,2 Hz, Reizdauer 1 ms) bis zum Erreichen eines stationären Zustands ("steady state") der Kraft in der Nährlösung äquilibriert. Die Konzentration der Testsubstanz wurde dann erhöht, wenn die Kraft innerhalb von 10 min nicht weiter zunahm.
In der folgenden Tabelle II sind die Konzentrationen der einzelnen Testsubstanzen aufgetragen, bei denen der positiv inotrope Effekt gerade erkennbar war (Schwellenkonzentration) oder 50 % der maximalen Kraftzunahme erreichte (EC50). Diese Werte wurden im unteren Teil der Tabelle denen bereits bekannter Testsubstanzen gegenübergestellt. Weiterhin werden Schwellenkonzentrationen und EC50-Werte für die aufgeführten Testsubstanzen in Anwesenheit des Phosphodiesterase-Hemmstoffs 1-Methyl-3-isobutylxanthin (IBMX) (2 x 10^-5 Mol/l) angegeben. Es resultiert eine Verschiebung zu 30 - 40-fach niedrigeren Konzentrationen im Vergleich zu den Werten ohne Phophodiesterase-Hemmstoff. Ein ähnlicher Synergismus wurde auch mit Papaverin (1 x 10^-5 Mol/l) und mit Theophyllin (3 x 10-^4 Mol/1) beobachtet.

[3] = test system: isolierte Trachealstreifen des Meerschweinchens; test: Relaxation of isolated tracheal strips (smooth muscle of the respiratory tract); type: cell-based, Meerschweinchen; details: Cavia porcellus, read-out: Abnahme der Muskelspannung (T) in % des Kontrollwertes
Source text: Zur Bestimmung der erschlaffenden Wirkung von 8-CH3S-cAMP-OCH2C6H5 (Verbindung 2) auf die glatte Muskulatur des Respirationstraktes wurden isolierte Trachealstreifen des Meerschweinchens verwendet. Aufhängung der Präparate erfolgte wie bereits beschrieben. Nach Vorgabe einer geeigneten Testspannung (0,8 g) wurde die erschlaffende Wirkung der Testsubstanz in Abhängigkeit von der Konzentration getestet. Nach Auswaschen der Testsubstanz wurde der Versuch mit einem bereits bekannten cAMP-Derivat (Dibutyryl-cAMP, Vergleichsverbindung 1) wiederholt.

[4] = test system: isoliertes Meerschweinchen-Myokard; details: Stand der Technik; cited from earlier work
[5] = test system: Trachealspangen-Kette des Meerschweinchens; test: Relaxation of spontaneously contracted tracheal ring chain in vitro, relative to (-)isoprenaline maximum; type: cell-based, Meerschweinchen; details: for EC50: Cavia porcellus, Dosis der halbmaximal möglichen Relaxation, Relaxation relative to (-)Isoprenalin 10^-6 Mol/l, read-out: ED50 (the source's name); for Relative Wirkungsstärke (Theophyllin = 1,00): im Vergleich zu Theophyllin
Protocol: Weiterhin wurde die relaxierende Wirkung erfindungsgemäßer Verbindungen auf die Trachealspangen-Kette des Meerschweinchens in vitro geprüft: • Vier parallele, aus jeweils 6 Einzelringen bestehende Trachealspangen-Ketten des Meerschweinchens (♂ und $, 430 - 600 g) im Organbad (5 ml, Krebs-Henseleit-Lösung mit Zusatz von Phentolamin (10^-5 Mol/l, 37°C, Vorspannung der Organe 2 g, Begasung mit Carbogen) entwickeln nach etwa 20 bis 30 Minuten eine stabile, tonische Spontankontraktur. An diesen dauerkontrahierten Organen kann unter isometrischen Meßbedingungen durch Applikation der Prüfsubstanz in kumulativhalblogarithmisch ansteigender Konzentration (z.B. 1x10-^6 + 2x-10^-6 + 7x10^-6 + 2x10^-5 usw. Mol/l) eine Relaxation herbeigeführt werden, wobei nach jeder Einzeldosis der Testsubstanz eine konstante Relaxations-Antwort abgewartet wird, bevor die nächst höhere Konzentration appliziert wird. Ober einen Zeitraum von 20 bis 30 Minuten wird somit eine vollständige Dosis-Wirkungskurve der Testsubstanz erhalten. Die jeweilige Relaxation wird als Prozentbruchteil der durch Gabe von (-)Isoprenalin (10^-6 Mol/1) maximal erreichbaren Relaxation ausgedrückt.
In Tabelle IV sind die ED50 (Dosis der halbmaximal möglichen Relaxation) und die relative Wirkungsstärke im Vergleich zu Theophyllin für erfindungsgemäße Verbindungen angegeben.

[6] = pH 7, Diastereomerengemisch, pH 7,4, read-out: lg P Gemisch
[7] = pH 7, Konfig. ax, pH 7,4, read-out: lg P
[8] = pH 7, Konfig. äq, pH 7,4, read-out: lg P
[9] = positiv inotroper Effekt gerade erkennbar, in Anwesenheit von IBMX (2 x 10^-5 Mol/l)
[10] = pH 7, Vergleichsverbindungen, pH 7,4, read-out: lg P - Werte
[11] = 50 % der maximalen Kraftzunahme, in Anwesenheit von IBMX (2 x 10^-5 Mol/l), read-out: EC50 + 20 µMol IBMX
[12] = 50 % der maximalen Kraftzunahme, ohne IBMX, read-out: EC50
[13] = positiv inotroper Effekt gerade erkennbar, ohne IBMX

logD [1, 6] | EC50 [2, 11] | EC50 [2, 12] | SMILES | logD [1, 7] | logD [1, 8] | Schwellenkonz. + 20 µMol IBMX [2, 9] | minimal effective concentration [2, 13] | further results
1.97 | 20 µM | 40 µM | Nc1ncnc2c1nc(NCc1ccccc1)n2[C@@H]1O[C@@H]2COP(=O)(OCc3ccccc3)O[C@H]2[C@H]1O (some centres unmarked) [Verbindung 6, 8-Benzylamino-adenosin-3^1,5^1-monophosphorsäurebenzylester] | – | – | 5e-06 mol/L | 10 µM | –
1.92 | 0.6 µM | 20 µM | Nc1ncnc2c1nc(SCc1ccccc1)n2[C@@H]1O[C@@H]2COP(=O)(OCc3ccccc3)O[C@H]2[C@H]1O (some centres unmarked) [Verbindung 3, 8-Benzylthioadenosin-3',5'-monophosphorsäurebenzyltriester] | 1.96 | 1.88 | 1e-07 mol/L | 10 µM | –
– | 60 µM | 250 µM | Nc1ncnc2c1ncn2[C@@H]1O[C@@H]2COP(=O)(OCc3ccccc3)O[C@H]2[C@H]1O (some centres unmarked) [compound 3, Adenosin-3',5'-phosphorsäurebenzylester, reference compound] | – | – | 1e-05 mol/L | 100 µM | logD [1, 10]: 1.1
2.24 | 0.3 µM | 2 µM | Nc1ncnc2c1nc(Sc1ccc(Cl)cc1)n2[C@@H]1O[C@@H]2COP(=O)(OCc3ccccc3)O[C@H]2[C@H]1O (some centres unmarked) [Verbindung 5, 8-(4-Chlor-phenylthio)-adenosin-3',5'-monophosphorsäurebenzylester] | – | – | 3e-08 mol/L | 0.1 µM | EC50 [5]: 38 µM; Relative Wirkungsstärke (Theophyllin = 1,00) [5]: 3,4
1.58 | 1.5 µM | 10 µM | Nc1ncnc2c1nc(Br)n2[C@@H]1O[C@@H]2COP(=O)(OCc3ccccc3)O[C@H]2[C@H]1O (some centres unmarked) [Verbindung 1, 8-Brom-adenosin-3',5'-monophosphorsäurebenzylester] | 1.61 | 1.54 | 3e-07 mol/L | 3 µM | EC50 [5]: 7 µM; Relative Wirkungsstärke (Theophyllin = 1,00) [5]: 18,5

Further lines, the compound ahead of its results:

SMILES | logD [1, 6] | EC50 [2, 11] | EC50 [2, 12] | logD [1, 7] | logD [1, 8] | Schwellenkonz. + 20 µMol IBMX [2, 9] | minimal effective concentration [2, 13] | further results
CN(Cc1ccccc1)c1nc2c(N)ncnc2n1[C@@H]1O[C@@H]2COP(=O)(OCc3ccccc3)O[C@H]2[C@H]1O (some centres unmarked) [Verbindung 7, 8-N-Benzyl-N-methylamino-adenosin-3',5'-monophosphorsäurebenzylester] | 2.29 | – | – | – | – | – | – | –
CSc1nc2c(N)ncnc2n1[C@@H]1O[C@@H]2COP(=O)(OCc3ccccc3)O[C@H]2[C@H]1O (some centres unmarked) [Verbindung 2, 8-Methylthio-adenosin-3',5^1-monophosphorsäurebenzylester] | 1.62 | – | – | 1.55 | 1.7 | 1e-07 mol/L | – | EC50 [2]: 10 µM; EC50 ([2]; read-out: EC50 + 20 µMol IBMX): 0.45 µM; minimal effective concentration [2]: 3 µM; inhibition at 1 µM [3]: 20%; inhibition at 3 µM [3]: 85%; inhibition at 10 µM [3]: 100%; inhibition at 30 µM [3]: 100%
CCCC(=O)Nc1ncnc2c1ncn2[C@@H]1O[C@@H]2COP(=O)(O)O[C@H]2[C@H]1OC(=O)CCC [Vergleichs-verbindung 1, Dibutyryl-cAMP, reference compound] | – | 300 µM | 1000 µM | – | – | 0.0001 mol/L | 300 µM | inotrope Wirkung (Nebenwirkung) [4]: anfangs negativ inotrope Wirkungen; logD [1, 10]: -1.1; inhibition at 1000 µM ([3]; 1 x 10^-3 Mol/l): 75%; inhibition at 100 µM ([3]; 1 x 10^-4 Mol/l): 8%; inhibition at 300 µM ([3]; 3 x 10^-4 Mol/l): 16%
Nc1ncnc2c1nc([Se]Cc1ccccc1)n2[C@@H]1O[C@@H]2COP(=O)(OCc3ccccc3)O[C@H]2[C@H]1O (some centres unmarked) [Verbindung 4, 8-Benzylseleno-adenosin-3',5'-monophosphorsäurebenzylester] | 1.67 | – | – | 1.7 | 1.64 | 1e-07 mol/L | – | EC50 [2]: 10 µM; EC50 ([2]; read-out: EC50 + 20 µMol IBMX): 0.55 µM; minimal effective concentration [2]: 3 µM
Nc1ncnc2c1nc(SCc1ccccc1)n2[C@@H]1O[C@@H]2COP(=O)(O)O[C@H]2[C@H]1O [compound 2, 8-Benzylthioadenosin-3',5'-phosphorsäure, reference compound] | – | 150 µM | 800 µM | – | – | 1e-05 mol/L | 100 µM | logD [1, 10]: -1.15
Cn1c(=O)c2[nH]cnc2n(C)c1=O [Theophyllin, reference compound] | – | – | – | – | – | – | – | EC50 [5]: 130 µM; Relative Wirkungsstärke (Theophyllin = 1,00) [5]: 1,00
